Data taken from PubChem BioAssay (NCI).
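Cultured in 96-well plates, cells were exposed to test compound for 48 hours across five concentrations. The concentration for 50% growth inhibition is given as GI50. TGI marks complete inhibition of growth.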

Legend:
Test in all cases: DTP human tumour cell line panel, 48 h
SK-MEL-28 melanoma = system: SK-MEL-28 melanoma
CCRF-CEM leukemia = system: CCRF-CEM leukemia
HT29 colon = system: HT29 colon
HOP-62 NSCLC = system: HOP-62 NSCLC
UO-31 renal = system: UO-31 renal
MCF7 breast = system: MCF7 breast
786-0 renal = system: 786-0 renal
SK-MEL-5 melanoma = system: SK-MEL-5 melanoma
SR leukemia = system: SR leukemia
RPMI-8226 leukemia = system: RPMI-8226 leukemia

Row | Structure (SMILES) | GI50 (SK-MEL-28 melanoma) [µM] | TGI (SK-MEL-28 melanoma) [µM] | GI50 (CCRF-CEM leukemia) [µM] | TGI (CCRF-CEM leukemia) [µM] | GI50 (HT29 colon) [µM] | TGI (HT29 colon) [µM] | GI50 (HOP-62 NSCLC) [µM] | TGI (HOP-62 NSCLC) [µM] | GI50 (UO-31 renal) [µM] | TGI (UO-31 renal) [µM] | GI50 (MCF7 breast) [µM] | TGI (MCF7 breast) [µM] | GI50 (786-0 renal) [µM] | TGI (786-0 renal) [µM] | GI50 (SK-MEL-5 melanoma) [µM] | TGI (SK-MEL-5 melanoma) [µM] | GI50 (SR leukemia) [µM] | TGI (SR leukemia) [µM] | GI50 (RPMI-8226 leukemia) [µM] | TGI (RPMI-8226 leukemia) [µM]
1 | C[CH2][Sn]([CH2]C)([O]C(=O)c1ccc(OC)c(OC)c1OC)[O]C(=O)c1ccc(OC)c(OC)c1OC | 26.6 | > 69 | 13.9 | 56.8 | > 96 | > 100 | > 100 | > 100 | > 65.7 | > 96.4 | 24.7 | 49.2 | 58.6 | > 100 | 99.2 | > 100 | 48 | > 100 | 22.7 | 72.2
2 | Cc1ccccc1C1CC(c2ccccc2)=NO1 (stereo unspecified) | – | > 100 | – | > 100 | – | > 100 | – | > 100 | – | > 100 | – | – | – | > 100 | – | > 100 | – | > 100 | – | > 100
3 | CCCCCC[C@H](C)NC(=O)c1ccc(Nc2nc3ccccc3c3occc23)cc1 | 5.41 | > 100 | 3.68 | > 100 | 2.53 | > 100 | 3.39 | 12.9 | 0.596 | 3.53 | 5.86 | > 100 | 2.35 | 7.71 | 2.24 | 5.24 | 6.65 | 55.5 | 4.03 | > 100
4 | Cc1cc(Cl)ccc1NC(=O)C(=O)C(C(=O)c1ccccc1)C1OC(=O)c2ccccc21 (stereo unspecified) | – | > 100 | – | > 100 | – | > 100 | – | > 100 | – | > 100 | – | – | – | > 100 | – | > 100 | – | > 100 | – | > 100
5 | C=C1C(=O)O[C@H]2[C@H]1CC/C(COC(=O)NCCCCCCCCNC(=O)OC/C1=C/CC[C@@]3(C)O[C@H]3[C@H]3OC(=O)C(=C)[C@@H]3CC1)=C\CC[C@@]1(C)O[C@@H]21 | 0.206 | 0.511 | 0.255 | 0.837 | 0.228 | 0.554 | 1.53 | 3.49 | 0.88 | 2.17 | 0.221 | 0.833 | 0.244 | 0.646 | 1.21 | 2.59 | 0.317 | 1.51 | 0.25 | 0.745
6 | C#Cc1cccc(NC(=O)c2ccc(NC(=O)CCl)cc2)c1 | > 82.5 | > 82.5 | 7.37 | 32.4 | 16 | 45.4 | 68.3 | > 82.5 | 9.48 | 20.3 | 22.6 | > 82.5 | 14.6 | 29.8 | 24.9 | > 82.5 | 7.17 | 26.6 | 14.7 | 44.1
7 | FC(F)(F)c1cc(Nc2ccc3cc(OCCCN4CCOCC4)ccc3n2)ccc1Cl | 1.59 | 3.39 | 2.03 | 9.18 | 1.59 | 3.16 | 1.87 | 3.63 | 1.55 | 3.27 | 1.51 | 3.56 | 1.3 | 2.81 | 1.64 | 3.16 | 1.4 | 4.73 | 1.11 | 6.61
8 | CCN(Cc1ccc(F)cc1)c1ccc(CO)c(OC)c1 | 20.2 | > 100 | 21.2 | 72 | 24 | > 67.5 | 40.8 | > 100 | 13.7 | 35.6 | 25.3 | > 100 | 21.4 | 65.1 | 11.9 | 24.9 | 19.5 | 55.7 | 15.9 | 50.5
9 | COCc1c(-c2ccc(NC(=O)Nc3cc(C(F)(F)F)ccc3F)c(F)c2)c2c(N)ncnn2c1CN1CCOCC1 | 3.02 | > 10 | 1.95 | 7.96 | 1.62 | > 10 | 2.05 | 7.1 | 1.59 | > 10 | 2.2 | 8.23 | 2.76 | > 10 | 2.49 | > 10 | 0.398 | 3.9 | 1.91 | 7.85
10 | COC(=O)C(/C(=N\NC(N)=S)C(=O)Nc1ccccc1[N+](=O)[O-])c1cnc2ccccc2n1 (stereo unspecified) | – | > 100 | – | > 100 | – | > 100 | – | > 100 | – | > 100 | – | – | – | > 100 | – | > 100 | – | > 100 | – | > 100
11 | COc1ccc(N(C)c2nc(Cl)nc3cnn(C)c23)cc1 | 12.8 | > 100 | < 0.0146 | > 100 | < 0.01 | > 100 | < 0.0118 | > 100 | < 0.0383 | > 95.5 | < 0.01 | > 100 | < 0.01 | > 100 | < 0.01 | 0.0874 | < 0.01 | > 100 | < 0.0177 | > 100
12 | Cc1ccc(S(=O)(=O)Nc2ccc(-c3cc(-c4cccc(F)c4)c(C#N)c(N)n3)cc2)cc1 | 1.96 | 4.08 | 2.26 | 30.8 | 3.4 | 12.3 | 4.25 | 17.2 | 1.32 | 2.59 | 2.32 | 10 | 1.71 | 3.12 | 1.77 | 3.23 | 2.7 | 10.5 | 2.21 | 8.92
13 | Cc1ccc2nc(NC(=O)/C(=N\NC(=S)NN)C3C(=O)NC(=S)NC3=O)sc2c1 | – | > 100 | – | > 100 | – | > 100 | – | > 100 | – | > 100 | – | – | – | > 100 | – | > 100 | – | > 100 | – | > 100
